Reference: patent publication US11186585B2 (priority 2018, dated 2021)
“And” between values parts separate entries of the source, which are not always exact repeats. Equal values may be shown once. “Also recorded” adds a separate entry of the source. Marks after values point to notes of the source that are not given here.

What was measured:
[1] = test system: healthy volunteers; test: Double-blind trial, heat pain threshold (hot water at 50° C.) after oral capsule; type: in vivo, human; conditions: for % MPE (analgesia): oral, individual data, 33 45 mg, NB 35 mg, 39 68 mg; for analgesia in humans, in words: given orally, compared with equivalent dose of Nalbuphine (NB) and NB-39
Description: Double-blind, NB hydrochloride and NB-39 controlled, trial of the antinociceptive effect of oral NB-33 in healthy volunteers. […] Each week a healthy volunteer would receive a pill from the assigned set in a random fashion and take it orally. […]
(§1) Following one week of a wash out period, each volunteer repeated the protocol until all pills from the assigned set were administered. The individual data for heat pain threshold as % MPE=[(test latency−baseline latency)/(baseline latency)]×100 and for miosis as % MPE=[(test diameter−baseline diameter)/(baseline diameter)]×100 are shown in Table 2 and Table 3 respectively.
(§2) Independent samples t-test was used to compare the means of % MPE analgesia and miosis in the two pairs of samples: NB-33 and NB and NB-33 and NB-39. All analyses were made using SPSS (v.25). • Bold indicates statistical significance at α=0.05

[2] = test system: rats; test: Randall-Selitto test after SC dose; type: in vivo, rat; conditions: for Randall-Selitto (g), individual animal: NB.HCl 3 mg/kg; for Randall-Selitto (g), individual animal / Randall-Selitto (g), Mean: NB-33.HCl 3.9 mg/kg; for Randall-Selitto (g), Mean: mean of 5, NB.HCl 3 mg/kg
Source text: FIG. 13 illustrate in the graphical form the results for 1310 NB-33, marked 1310, in comparison to the base NB compound NB, marked 1320 in FIG. 13.

[3] = test system: Sprague-Dawley rats; test: Antinociceptive activity, cold ethanol tail-flick test after oral gavage; type: in vivo, rat; conditions: for analgesia in rats, in words: given orally, compared with equivalent dose of Nalbuphine (parent opioid); for Analgesia (rat): oral gavage in sesame oil, 60 uM/kg, one dose, tail-flick at −20° C., cutoff 40 seconds
[4] = test system: healthy volunteers; test: Double-blind trial, miosis after oral capsule; type: in vivo, human; conditions: for % MPE (miosis): oral, individual data, 33 45 mg, NB 35 mg, 39 68 mg; for effect on pupil dilation (miosis) in humans, in words: oral administration
Description: Double-blind, NB hydrochloride and NB-39 controlled, trial of the antinociceptive effect of oral NB-33 in healthy volunteers. Each of the three healthy volunteers was assigned a set of 6 non-transparent gelatin capsules as follows: 2×NB hydrochloride (MW=393.4; 39 mg), 2×NB-33 (MW=451.6; 45 mg) and 2×NB-39 (MW=680.0; 68 mg). Each week a healthy volunteer would receive a pill from the assigned set in a random fashion and take it orally. At T=0 hr, 0.25 hr, 0.5 hr, 1 hr, 1.5 hr, 2 hr, 3 hr and 5 hr followed oral administration a heat pain threshold was measured (hot water at 50° C.) as well as miosis.
as §1, §2

[5] = Stability in human plasma; conditions: 37° C., acceptance criteria: NLT than 20% of hydrolysis after 4 hrs
[6] = Stability in the simulated gastro-intestinal fluid (sGIF); conditions: 0.5% pepsine in 0.1N aqueous HCl, 37° C.; acceptance: NLT 80% of the derivative still intact after 4 hrs
[7] = test system: Human recombinant opiate receptor (mu, kappa or delta); test: Human recombinant opiate receptor panel, overall profile in words; type: cell-based; conditions: CHO-K1 cells, cAMP
Description: (§3) Human recombinant opiate receptor (mu, kappa or delta) expressed in CHO-K1 cells were used. Test compound (NB-33)/or vehicle was incubated with the cells (4×10E5/mL) in modified HBSS pH 7.4 buffer at […] for 30 min. The reaction was evaluated for cAMP levels by TR-FRET. Compounds were screened at 0.3, 1 and 3 uM. by Eurofins Pharma Discovery Services.
as §3, with “(NX-90)/or” for “(NB-33)/or”, “levels (cAMP and/or calcium flux)” for “levels”, “0.1, 0.3 and” for “0.3,”, “uM” for “and 3 uM.”

Row | SMILES | % MPE (analgesia) ([1]; 0 hr (baseline)) | % MPE (analgesia) ([1]; 0.25 hr) | % MPE (analgesia) ([1]; 0.5 hr) | % MPE (analgesia) ([1]; 1 hr) | % MPE (analgesia) ([1]; 1.5 hr) | % MPE (analgesia) ([1]; 2 hr) | % MPE (analgesia) ([1]; 2.5 hr) | % MPE (analgesia) ([1]; 3 hr) | % MPE (analgesia) ([1]; 5 hr) | analgesia in humans, in words [1] | analgesia in rats, in words [3] | Analgesia (rat) [3] | % MPE (miosis) ([4]; 0 hr (baseline)) | % MPE (miosis) ([4]; 0.25 hr) | % MPE (miosis) ([4]; 0.5 hr) | % MPE (miosis) ([4]; 1 hr) | % MPE (miosis) ([4]; 1.5 hr) | % MPE (miosis) ([4]; 2 hr) | Stable in plasma [5] | Stable in sGIF [6] | also measured
1 | C/C=C/C=C/C(=O)Oc1ccc2c3c1OC1C(O)CCC4(O)C(C2)N(CC2CCC2)CCC314 (stereo not drawn) [NB-33, 3-(cyclobutylmethyl)-4a,7-dihydroxy-2,3,4,4a,5,6,7,7a-octahydro-1H-4,12-methanobenzofuro[3,2-e]isoquinolin-9-yl (2E,4E)-hexa-2,4-dienoate] | 0.0 % MPE | 0.0 % MPE (2×) and 8.3 % MPE and 3.7 % MPE and 31.3 % MPE and 30.0 % MPE | 19.2 % MPE and 24.0 % MPE and 66.7 % MPE and 48.1 % MPE and 37.5 % MPE (2×) | 100.0 % MPE and 80.0 % MPE and 183.3 % MPE and 59.3 % MPE and 50.0 % MPE and 67.5 % MPE | 115.4 % MPE and 140.0 % MPE and 87.5 % MPE and 114.8 % MPE and 68.8 % MPE and 97.5 % MPE | 111.5 % MPE and 124.0 % MPE and 191.7 % MPE and 185.2 % MPE and 81.3 % MPE and 157.5 % MPE | 119.2 % MPE and 96.0 % MPE and 112.5 % MPE (2×) and 133.3 % MPE and 31.3 % MPE | 157.7 % MPE and 60.0 % MPE and 45.8 % MPE and 118.5 % MPE and 25.0 % MPE and 27.5 % MPE | 115.4 % MPE and 24.0 % MPE and 20.8 % MPE and 44.4 % MPE and 18.8 % MPE and 22.5 % MPE | superior | excellent and superior results; also recorded: better analgesia than the parent opioid | Excellent | 0.0 % MPE | 26.7 % MPE and −8.8 % MPE and 0.3 % MPE and 20.0 % MPE and 0.0 % MPE and −5.0 % MPE | 26.7 % MPE (3×) and 3.4 % MPE and 33.3 % MPE and −6.3 % MPE | 40.4 % MPE (2×) and 24.0 % MPE and 42.2 % MPE and 33.9 % MPE and 26.7 % MPE | 46.2 % MPE and 20.6 % MPE and 36.5 % MPE (2×) and 42.2 % MPE and 33.9 % MPE | 55.9 % MPE and 37.8 % MPE and 46.2 % MPE (2×) and 42.2 % MPE and 42.9 % MPE | No | Yes | analgesic properties vs equimolar dose of the parent opioid NB, in words (Graph 1, FIG. 13) ([2]; Randall-Selitto, rats): superior analgesic properties; % MPE (miosis) ([4]; 2.5 hr): 65.7 % MPE and 46.4 % MPE and 63.7 % MPE and 29.5 % MPE and 33.9 % MPE and 46.2 % MPE; % MPE (miosis) ([4]; 3 hr): 29.0 % MPE and 3.4 % MPE and 36.5 % MPE (2×) and 15.6 % MPE and 25.0 % MPE; % MPE (miosis) ([4]; 5 hr): 32.1 % MPE and 3.4 % MPE and 36.5 % MPE and 9.3 % MPE and 17.2 % MPE and 33.7 % MPE; effect on pupil dilation (miosis) in humans, in words [4]: superior; also recorded: significant effect; pharmacological profile at opiate receptors, in words [7]: not a pharmacologically inert compound
2 | CCCCCCCCCCCCCCCCCCCCCC(=O)Oc1ccc2c3c1OC1C(O)CCC4(O)C(C2)N(CC2CCC2)CCC314 (stereo not drawn) [NB-39, 3-(cyclobutylmethyl)-4a,7-dihydroxy-2,3,4,4a,5,6,7,7a-octahydro-1H-4,12-methanobenzofuro[3,2-e]isoquinolin-9-yl docosanoate] | 0.0 % MPE | 0.0 % MPE (2×) and 17.6 % MPE and 13.3 % MPE and 6.2 % MPE and 8.3 % MPE | 10.0 % MPE and 11.8 % MPE and 40.0 % MPE and 6.2 % MPE and 55.6 % MPE and 15.0 % MPE | 10.0 % MPE and 5.9 % MPE and 73.3 % MPE and 10.8 % MPE and 11.1 % MPE and 5.0 % MPE | 15.0 % MPE and 11.8 % MPE and 93.3 % MPE and −7.7 % MPE and 19.4 % MPE and 5.0 % MPE | 10.0 % MPE and 23.5 % MPE and 93.3 % MPE and 33.8 % MPE and 0.0 % MPE (2×) | 5.0 % MPE (2×) and 0.0 % MPE and 46.7 % MPE and −6.2 % MPE and 16.7 % MPE | 10.0 % MPE and 11.8 % MPE and 40.0 % MPE and 9.2 % MPE and 0.0 % MPE (2×) | 0.0 % MPE (2×) and 6.7 % MPE and −9.2 % MPE and −2.8 % MPE and 5.0 % MPE | inferior | inferior | Inactive | 0.0 % MPE | 10.3 % MPE and 0.0 % MPE and 25.0 % MPE and 12.5 % MPE and 20.0 % MPE and 3.1 % MPE | 14.9 % MPE and 0.0 % MPE and 16.7 % MPE and 9.4 % MPE (2×) and 26.7 % MPE | 37.9 % MPE and 6.7 % MPE and 22.2 % MPE and 18.8 % MPE and 36.7 % MPE and 21.9 % MPE | 37.9 % MPE and 6.7 % MPE and 33.3 % MPE and 21.9 % MPE and 23.3 % MPE and 25.0 % MPE | 14.9 % MPE and 0.0 % MPE and 25.0 % MPE and 17.2 % MPE and 16.7 % MPE and 6.2 % MPE | No | Yes | % MPE (miosis) ([4]; 2.5 hr): 14.9 % MPE and 6.7 % MPE and 11.1 % MPE and 6.2 % MPE and 13.3 % MPE and 9.4 % MPE; % MPE (miosis) ([4]; 3 hr): 24.1 % MPE and 0.0 % MPE (3×) and 11.1 % MPE and 3.3 % MPE; % MPE (miosis) ([4]; 5 hr): 3.4 % MPE and 0.0 % MPE (2×) and 11.1 % MPE and 13.3 % MPE and 3.1 % MPE; effect on pupil dilation (miosis) in humans, in words [4]: did not significantly affect
3 | C/C=C/C=C/C(=O)Oc1ccc2c3c1OC1C(O)CCC4(O)C(C2)N(CC2CCC2)CCC314.Cl (stereo not drawn) [NB-56, 3-(cyclobutylmethyl)-9-(((2E,4E)-hexa-2,4-dienoyl)oxy)-4a,7-dihydroxy-2,3,4,4a,5,6,7,7a-octahydro-1H-4,12-methanobenzofuro[3,2-e]isoquinolin-3-ium chloride] | – | – | – | – | – | – | – | – | – | – | – | No | – | – | – | – | – | – | No | Yes | Randall-Selitto (g), individual animal ([2]; Post-dose 0.5 hr): 121 g and 120 g and 207 g and 161 g and 96 g; Randall-Selitto (g), Mean ([2]; Post-dose 0.5 hr): 141.0* g; Randall-Selitto (g), individual animal ([2]; Post-dose 1 hr): 98 g and 103 g and 199 g and 73 g and 86 g; Randall-Selitto (g), Mean ([2]; Post-dose 1 hr): 111.8 g; Randall-Selitto (g), individual animal ([2]; Post-dose 2 hr): 99 g and 94 g and 214 g and 102 g and 85 g; Randall-Selitto (g), Mean ([2]; Post-dose 2 hr): 118.8 g; Randall-Selitto (g), individual animal ([2]; Post-dose 4 hr): 83 g and 71 g and 136 g and 63 g and 97 g; Randall-Selitto (g), Mean ([2]; Post-dose 4 hr): 90.0 g; Randall-Selitto (g), individual animal ([2]; Post-dose 6 hr): 79 g and 64 g and 101 g and 65 g and 85 g; Randall-Selitto (g), Mean ([2]; Post-dose 6 hr): 78.8 g; Randall-Selitto (g), individual animal ([2]; Pre-treatment (baseline)): 93 g and 82 g and 98 g and 80 g and 96 g; Randall-Selitto (g), Mean ([2]; Pre-treatment (baseline)): 89.8 g
4 | C=CCN1CCC23c4c5ccc(OC(=O)/C=C/C=C/C)c4OC2C(=O)CCC3(O)C1C5 (stereo not drawn) [NX-90, 3-allyl-4a-hydroxy-7-oxo-2,3,4,4a,5,6,7,7a-octahydro-1H-4,12-methanobenzofuro[3,2-e]isoquinolin-9-yl (2E,4E)-hexa-2,4-dienoate] | – | – | – | – | – | – | – | – | – | – | – | – | – | – | – | – | – | – | – | – | pharmacological profile at opiate receptors, in words [7]: not a pharmacologically inert compound
